According to patent publication US20220324770A1, “NITRIFICATION INHIBITORS” (The University of Melbourne, priority 2019, published 2022):

Legend:
Horsham soil = assay: Soil microcosm incubation (nitrification of applied ammonium), Horsham soil
Description: (§1) The soil used in this study was collected from four different locations in Victoria, Australia: (i) a wheat cropping soil from Horsham (36° 45′S, 142° 07′ E), (ii) a rotational cropping soil from Dahlen (36° 37′S, 142° 09′ E), (iii) a vegetable growing soil from Clyde (38° 08′S, 145° 20′ E), and (iv) a pasture soil from Terang (38° 15′S, 142° 52′E). In addition, a sugarcane cropping soil from South Johnstone in northern Queensland (17° 34′S, 145° 57′ E) was also studied. The water content of the soil was calculated before commencing each experiment, from samples that were oven-dried to constant weight. The soil's water-filled pore space (WFPS) was in the range 52%-61%, which is within the recommended 50-70% range for microbial activity due to oxygen and nutrient availability (Fichtner, T., et al., Applied Sciences, 2019, 9, 496).
(§2) Soil microcosm incubations were carried out in 250 ml polypropylene specimen containers (Sarstedt, Germany), containing 18.24 g oven dry-weight equivalent of soil. Microcosms were re-wetted and pre-incubated at the test temperature for seven days to revive soil microbial activity. Following pre-incubation, the remaining volume to reach the desired water-filled pore spaces (WFPS %) was applied as one of the following treatment solutions; (NH4)2SO4(Control), (NH4)2SO4+DMPP, or (NH4)2SO4+one of Compounds 1-23. Each treatment was applied in triplicate per soil type, so that n=3 at each time point.
(§3) Treatment solutions were prepared such that each microcosm received (NH4)2SO4 at a rate of 100 mg N per kg soil, Compounds 1-23 at 10 mol % of applied N, or DMPP at one of 1.5, 3.6 or 10 mol % of applied N, referred to as L-DMPP, M-DMPP or H-DMPP respectively.
(§4) The microcosms were incubated for 0, 3, 7, 14, 21 or 28 days, where day 0 samples were extracted following 1-hour incubation post-treatment. Soil microcosms were aerated and moisture levels were replenished based on weight loss every few days throughout the incubation period.
(§5) At the end of each incubation period, soil microcosms were destructively sampled by treatment with 2M KCl (100 mL). After shaking for 1 hour, soil-KCl solutions were filtered (Whatman 42) before storing the filtrates at −20° C. until the conclusion of the experiment. All KCl extracts were then analysed by Segmented Flow Analysis (San++, Skalar, Breda, The Netherlands) for the concentration of nitrogen from ammonium (NH4^+—N) and nitrogen from NO3 and NO2 (NOx^−—N) after appropriate dilutions. Results are reported as the mean of three replicates, errors reported are standard errors of the mean.
(§6) Nitrification calculations were performed as previously reported (Aulakh, M., et al., Biology and Fertility of Soils 2001, 33, 258-263; Mahmood, T., et al., Soil Research 2017, 55, 715-722) without correction for the initial baseline concentrations of NH4^+—N or NO3^− N in the untreated soil. For each treatment nitrified NH4^+—N (%) was calculated according to eqn. 1:
(§7) where [NH4^+—N]0 is the NH4^+—N concentration (in mg N kg^−1 soil) of the soil on day 0 and [NH4^+—N]t is the NH4^+—N concentration (in mg N kg^−1 soil) of the soil at a given time point t.
(§8) NOx^−—N accumulation rates (mg NOx^−—N/kg soil/day) over the 28-day incubation experiments were calculated for each treatment as in the following (eqn. 2):
(§9) [NOx^−—N]t=0 and [NOx^−—N]t=28 are the combined concentrations of nitrite (NO2) and nitrate (NO3) in the soil (in mg N kg^−1 soil) on day 0 and day 28, respectively.

Dahlen soil = assay: Soil microcosm incubation (nitrification of applied ammonium), Dahlen soil; settings: for NOx−—N accumulation rate / NOx−—N accumulation rate: effect of temperature (25° C. vs 35° C.): 28-day incubation; for Nitrified NH4+—N (%) Day 3 / Nitrified NH4+—N (%) Day 7 / Nitrified NH4+—N (%) Day 14 / Nitrified NH4+—N (%) Day 21 / Nitrified NH4+—N (%) Day 28: 10 mol %
Description: as §1, §2, §3, §4, §5, §6, §7, §8, §9

South Johnstone soil = assay: Soil microcosm incubation (nitrification of applied ammonium), South Johnstone soil; settings: South Johnstone soil, 25° C., days 21 and 28
Description: as §1, §2, §3, §4, §5, §6, §7

[1] = Horsham soil pH 8.8, 25° C., inhibitors 10 mol % of applied N
[2] = Horsham soil pH 8.8, 25° C., 10 mol %
[3] = Horsham soil pH 8.8, 35° C., 10 mol %
[4] = Horsham soil, 25° C., after 28 days
[5] = Dahlen soil, 25° C., after 28 days
[6] = Dahlen soil, 35° C., after 28 days
[7] = Table 4, Dahlen soil pH 7.3, 25° C.
[8] = Table 4, Dahlen soil pH 7.3, 35° C.
[9] = Dahlen soil, 25° C., Table 5 test
[10] = Table 5 (further comparative test), Dahlen soil pH 7.3, 25° C.
[11] = Table 5, Dahlen soil pH 7.3, 25° C.
[12] = Table 5, Dahlen soil pH 7.3, 35° C.

Row | SMILES | Nitrified NH4+—N (%) Day 3 (Horsham soil; [1]) [%] | Nitrified NH4+—N (%) Day 7 (Horsham soil; [2]) [%] | Nitrified NH4+—N (%) Day 14 (Horsham soil; [2]) [%] | Nitrified NH4+—N (%) Day 21 (Horsham soil; [2]) [%] | Nitrified NH4+—N (%) Day 28 (Horsham soil; [2]) [%] | Nitrified NH4+—N (%) Day 3 (Horsham soil; [3]) [%] | Nitrified NH4+—N (%) Day 7 (Horsham soil; [3]) [%] | Nitrified NH4+—N (%) Day 14 (Horsham soil; [3]) [%] | Nitrified NH4+—N (%) Day 21 (Horsham soil; [3]) [%] | Nitrified NH4+—N (%) Day 28 (Horsham soil; [3]) [%] | retaining NH4+ vs uninhibited control treatment (Horsham soil; [4]) | nitrification rates vs uninhibited control treatment (Horsham soil; Horsham soil, 35° C.) | NOx−—N accumulation rate (Dahlen soil; Dahlen soil, 25° C.) [mg NOx−—N/kg soil/day] | retaining NH4+—N vs uninhibited control treatment and DMPP (Dahlen soil; [5]) | NOx−—N accumulation rate: effect of temperature (25° C. vs 35° C.) (Dahlen soil; Dahlen soil) | NOx−—N accumulation rate (Dahlen soil; Dahlen soil, 35° C.) [mg NOx−—N/kg soil/day] | retaining NH4+ vs both DMPP treatment and control treatment (Dahlen soil; [6]) | Nitrified NH4+—N (%) Day 3 (Dahlen soil; [7]) [%] | Nitrified NH4+—N (%) Day 7 (Dahlen soil; [7]) [%] | Nitrified NH4+—N (%) Day 14 (Dahlen soil; [7]) [%] | further results
1 | CCCCn1cc(CCC)nn1 [Compound 13, 1-butyl-4-propyl-1H-1,2,3-triazole] | 17.7 ± 3.9 | 23.4 ± 5.4 | 40.0 ± 4.3 | 47.2 ± 4.3 | 72.2 ± 4.8 | 3.5 ± 6.4 | 18.7 ± 5.5 | 48.0 ± 5.3 | 59.3 ± 10.3 | 61.2 ± 14.2 | performed statistically better | lower nitrification rates than the uninhibited control treatment | 2.5 | performed statistically better | least affected by the temperature change | 2.4 | performed statistically better | 10.6 ± 3.7 | 22.2 ± 50.2 | 24.9 ± 59.3 | rate of NOx−—N accumulation (Horsham soil; Horsham soil, 25° C., 28-day incubation): 2.8 mg NOx−—N/kg soil/day; retaining NH4+ and preventing NOx production (statistics vs control) (Horsham soil; Horsham soil, 35° C.): performed statistically better; rate of NOx−—N accumulation (Horsham soil; Horsham soil, 35° C., 28-day incubation): 2.8 mg NOx−—N/kg soil/day; NH4+—N consumption (Horsham soil; Horsham soil, 35° C., after 28 days): 61%; Nitrified NH4+—N (%) Day 21 (Dahlen soil; [7]): 32.6 ± 2.4%; Nitrified NH4+—N (%) Day 28 (Dahlen soil; [7]): 41.5 ± 1.2%; Nitrified NH4+—N (%) Day 3 (Dahlen soil; [8]): −1.2 ± 1.1%; Nitrified NH4+—N (%) Day 7 (Dahlen soil; [8]): 3.5 ± 1.3%; Nitrified NH4+—N (%) Day 14 (Dahlen soil; [8]): 9.2 ± 1.1%; Nitrified NH4+—N (%) Day 21 (Dahlen soil; [8]): 34.2 ± 2.4%; Nitrified NH4+—N (%) Day 28 (Dahlen soil; [8]): 33.6 ± 1.3%
2 | C#CCNC(=O)Cn1cc(CCC)nn1 [Compound 23, prop-2-yn-1-yl 2-(4-propyl-1H-1,2,3-triazol-1-yl)-acetamide] | – | – | – | – | – | – | – | – | – | – | – | – | – | – | – | – | – | – | – | – | retaining NH4+—N levels by day 28 vs fertilised control (and DMPP) (Dahlen soil; [9]): performed statistically better; Nitrified NH4+—N (%) Day 3 (Dahlen soil; [10]): 4.8 ± 2.9%; Nitrified NH4+—N (%) Day 7 (Dahlen soil; [11]): 15.7 ± 1.5%; Nitrified NH4+—N (%) Day 14 (Dahlen soil; [11]): 30.3 ± 0.8%; Nitrified NH4+—N (%) Day 21 (Dahlen soil; [11]): 35.9 ± 1.2%; Nitrified NH4+—N (%) Day 28 (Dahlen soil; [11]): 60.5 ± 1.0%; Nitrified NH4+—N (%) Day 3 (Dahlen soil; [12]): 15.6 ± 6.4%; Nitrified NH4+—N (%) Day 7 (Dahlen soil; [12]): 8.8 ± 5.6%; Nitrified NH4+—N (%) Day 14 (Dahlen soil; [12]): 24.0 ± 6.7%; Nitrified NH4+—N (%) Day 21 (Dahlen soil; [12]): 41.7 ± 4.7%; Nitrified NH4+—N (%) Day 28 (Dahlen soil; [12]): 64.6 ± 4.9%
3 | C=CCOC(=O)Cn1cc(CCC)nn1 [Compound 20, prop-2-en-1-yl 2-(4-propyl-1H-1,2,3-triazol-1-yl)-acetate] | – | – | – | – | – | – | – | – | – | – | – | – | – | – | – | – | – | – | – | – | retaining NH4+—N levels by day 28 vs fertilised control (and DMPP) (Dahlen soil; [9]): performed statistically better than the fertilised control; retaining NH4+—N vs (NH4)2SO4-treated control by day 28 (Dahlen soil; Dahlen soil, 35° C., Table 5 test): remain highly effective; Nitrified NH4+—N (%) Day 3 (Dahlen soil; [10]): 1.9 ± 1.3%; Nitrified NH4+—N (%) Day 7 (Dahlen soil; [11]): 8.0 ± 0.6%; Nitrified NH4+—N (%) Day 14 (Dahlen soil; [11]): 15.2 ± 1.2%; Nitrified NH4+—N (%) Day 21 (Dahlen soil; [11]): 26.0 ± 2.1%; Nitrified NH4+—N (%) Day 28 (Dahlen soil; [11]): 31.8 ± 4.5%; Nitrified NH4+—N (%) Day 3 (Dahlen soil; [12]): 16.6 ± 4.5%; Nitrified NH4+—N (%) Day 7 (Dahlen soil; [12]): 5.0 ± 4.3%; Nitrified NH4+—N (%) Day 14 (Dahlen soil; [12]): 17.7 ± 3.8%; Nitrified NH4+—N (%) Day 21 (Dahlen soil; [12]): 17.1 ± 3.6%; Nitrified NH4+—N (%) Day 28 (Dahlen soil; [12]): 45.6 ± 8.3%
4 | CCCc1cn(CC(=O)OCC)nn1 [Compound 19, ethyl 2-(4-propyl-1H-1,2,3-triazol-1-yl)-acetate] | – | – | – | – | – | – | – | – | – | – | – | – | – | – | – | – | – | – | – | – | effectiveness among the treatments (NH4+—N retention, NOx−—N growth) (South Johnstone soil): least effective
5 | C#CCCn1cc(CCC)nn1 [Compound 17, 1-(3-butyn-1-yl)-4-propyl-1H-1,2,3-triazole] | 13.5 ± 4.7 | 30.6 ± 5.5 | 35.1 ± 5.1 | 43.9 ± 5.7 | 65.8 ± 5.2 | −0.8 ± 3.4 | 8.5 ± 2.8 | 37.2 ± 2.3 | 75.7 ± 5.4 | 76.2 ± 2.1 | performed statistically better | lower nitrification rates than the uninhibited control treatment | 4.7 | performed statistically better | largest reduction in the accumulation rate | 2.4 | performed statistically better | 3.0 ± 1.3 | 10.4 ± 3.6 | 12.1 ± 3.2 | ammonia consumption (Dahlen soil; [6]): 38%; Nitrified NH4+—N (%) Day 21 (Dahlen soil; [7]): 22.2 ± 5.0%; Nitrified NH4+—N (%) Day 28 (Dahlen soil; [7]): 36.4 ± 6.8%; Nitrified NH4+—N (%) Day 3 (Dahlen soil; [8]): 6.3 ± 2.2%; Nitrified NH4+—N (%) Day 7 (Dahlen soil; [8]): 8.8 ± 1.9%; Nitrified NH4+—N (%) Day 14 (Dahlen soil; [8]): 17.7 ± 2.6%; Nitrified NH4+—N (%) Day 21 (Dahlen soil; [8]): 38.0 ± 2.8%; Nitrified NH4+—N (%) Day 28 (Dahlen soil; [8]): 37.6 ± 3.1%
6 | CCCCc1cn(CCOC)nn1 [Compound 14, 1-(2-methoxyethyl)-4-butyl-1H-1,2,3-triazole] | 23.8 ± 3.0 | 38.7 ± 5.3 | 84.3 ± 5.6 | 93.4 ± 6.2 | 100 ± 3.2 | 13.2 ± 5.4 | 15.7 ± 5.7 | 39.8 ± 6.6 | 83.5 ± 7.2 | 79.7 ± 9.4 | – | – | – | – | – | – | – | – | – | – | NOx−—N accumulation: effect of temperature (25° C. vs 35° C.) (Horsham soil; Horsham soil, 28-day incubation): lower at the elevated temperature
